Source: patent US12428442B2, “Compounds, compositions and methods for synthesis” (WAVE LIFE SCIENCES LTD., priority 2017, dated 2025)

Test: Measuring pKa value of amino alcohols by titration against NaOH in MDA/KCl
Conditions: MDA = Methanol-Dioxane-Acetonitrile, 1:1:1
Description: To this clear solution was added 6 μL of con. HCl and stirred well. This solution was titrated against 1 M NaOH solution. NaOH solution was added in 2 (or 4) ml increments. During the addition of each increment of NaOH solution, pH of the solution was recorded using a pH meter until a pH of 12 was measured. The measured titration values were analyzed (graph pad software was used) to determine the first derivative of the volume of NaOH used in the titration. This first derivative value is the pKa of the amino alcohol.

| Structure (SMILES) | solubility of sample in MDA mixture |
| --- | --- |
| C[Si](C[C@H](O)[C@H]1CCCN1)(C1CCCCC1)C1CCCCC1 [WV-CA-041-D] | Sample Insoluble in MDA |
| C[Si](C[C@@H](O)[C@@H]1CCCN1)(C1CCCCC1)C1CCCCC1 [WV-CA-041-L] | Sample Insoluble in MDA |
| C[Si](C[C@@H](O)[C@@H]1CCCCN1)(C1CCCCC1)C1CCCCC1 [WV-CA-045] | Insoluble in MDA mixture |
| C[Si](C[C@H](O)[C@@H]1CCCCN1)(C1CCCCC1)C1CCCCC1 [WV-CA-046] | Insoluble in MDA mixture |
